ChEMBL document CHEMBL4251634, “Synthesis and antimicrobial activity of pyrimidinyl 1,3,4-oxadiazoles, 1,3,4-thiadiazoles and 1,2,4-triazoles” (2018)
Active and inactive are the calls of the source. The rule behind the calls is not given here.

Key:
Assay type in all cases: functional
Staphylococcus aureus [1] = test: Antibacterial activity against Staphylococcus aureus assessed as diameter of inhibition zone at 12.5 ug/well after 24 hrs by agar well diffusion method
Staphylococcus aureus [2] = test: Antibacterial activity against Staphylococcus aureus assessed as diameter of inhibition zone at 25 ug/well after 24 hrs by agar well diffusion method; settings: for zone of inhibition at 25 µg/disc: read-out: DIZ
Staphylococcus aureus [3] = test: Antibacterial activity against Staphylococcus aureus assessed as diameter of inhibition zone at 50 ug/well after 24 hrs by agar well diffusion method; settings: for zone of inhibition at 50 µg/disc: read-out: DIZ
Staphylococcus aureus [4] = test: Antibacterial activity against Staphylococcus aureus assessed as diameter of inhibition zone at 100 ug/well after 24 hrs by agar well diffusion method; settings: for zone of inhibition at 100 µg/disc: read-out: DIZ
Bacillus subtilis [5] = test: Antibacterial activity against Bacillus subtilis assessed as diameter of inhibition zone at 12.5 ug/well after 24 hrs by agar well diffusion method; settings: for zone of inhibition at 12.5 µg/disc: read-out: DIZ
Bacillus subtilis [6] = test: Antibacterial activity against Bacillus subtilis assessed as diameter of inhibition zone at 25 ug/well after 24 hrs by agar well diffusion method; settings: for zone of inhibition at 25 µg/disc: read-out: DIZ
Bacillus subtilis [7] = test: Antibacterial activity against Bacillus subtilis assessed as diameter of inhibition zone at 50 ug/well after 24 hrs by agar well diffusion method; settings: read-out: DIZ
Bacillus subtilis [8] = test: Antibacterial activity against Bacillus subtilis assessed as diameter of inhibition zone at 100 ug/well after 24 hrs by agar well diffusion method; settings: read-out: DIZ
Pseudomonas aeruginosa [9] = test: Antibacterial activity against Pseudomonas aeruginosa assessed as diameter of inhibition zone at 12.5 ug/well after 24 hrs by agar well diffusion method; settings: read-out: DIZ
Pseudomonas aeruginosa [10] = test: Antibacterial activity against Pseudomonas aeruginosa assessed as diameter of inhibition zone at 25 ug/well after 24 hrs by agar well diffusion method; settings: read-out: DIZ
Pseudomonas aeruginosa [11] = test: Antibacterial activity against Pseudomonas aeruginosa assessed as diameter of inhibition zone at 50 ug/well after 24 hrs by agar well diffusion method; settings: read-out: DIZ
Pseudomonas aeruginosa [12] = test: Antibacterial activity against Pseudomonas aeruginosa assessed as diameter of inhibition zone at 100 ug/well after 24 hrs by agar well diffusion method; settings: read-out: DIZ
Klebsiella pneumoniae [13] = test: Antibacterial activity against Klebsiella pneumoniae assessed as diameter of inhibition zone at 12.5 ug/well after 24 hrs by agar well diffusion method; settings: read-out: DIZ
Klebsiella pneumoniae [14] = test: Antibacterial activity against Klebsiella pneumoniae assessed as diameter of inhibition zone at 25 ug/well after 24 hrs by agar well diffusion method; settings: read-out: DIZ
Klebsiella pneumoniae [15] = test: Antibacterial activity against Klebsiella pneumoniae assessed as diameter of inhibition zone at 50 ug/well after 24 hrs by agar well diffusion method; settings: read-out: DIZ
Klebsiella pneumoniae [16] = test: Antibacterial activity against Klebsiella pneumoniae assessed as diameter of inhibition zone at 100 ug/well after 24 hrs by agar well diffusion method; settings: read-out: DIZ
Aspergillus niger [17] = test: Antifungal activity against Aspergillus niger assessed as diameter of inhibition zone at 12.5 ug/well after 48 hrs by agar well diffusion method; settings: read-out: DIZ
Aspergillus niger [18] = test: Antifungal activity against Aspergillus niger assessed as diameter of inhibition zone at 25 ug/well after 48 hrs by agar well diffusion method; settings: read-out: DIZ
Aspergillus niger [19] = test: Antifungal activity against Aspergillus niger assessed as diameter of inhibition zone at 50 ug/well after 48 hrs by agar well diffusion method; settings: read-out: DIZ
Aspergillus niger [20] = test: Antifungal activity against Aspergillus niger assessed as diameter of inhibition zone at 100 ug/well after 48 hrs by agar well diffusion method; settings: read-out: DIZ
Penicillium chrysogenum [21] = test: Antifungal activity against Penicillium chrysogenum assessed as diameter of inhibition zone at 12.5 ug/well after 48 hrs by agar well diffusion method; settings: for zone of inhibition at 12.5 µg/disc: read-out: DIZ
Penicillium chrysogenum [22] = test: Antifungal activity against Penicillium chrysogenum assessed as diameter of inhibition zone at 25 ug/well after 48 hrs by agar well diffusion method; settings: for zone of inhibition at 25 µg/disc: read-out: DIZ
Penicillium chrysogenum [23] = test: Antifungal activity against Penicillium chrysogenum assessed as diameter of inhibition zone at 50 ug/well after 48 hrs by agar well diffusion method; settings: read-out: DIZ
Penicillium chrysogenum [24] = test: Antifungal activity against Penicillium chrysogenum assessed as diameter of inhibition zone at 100 ug/well after 48 hrs by agar well diffusion method; settings: read-out: DIZ

Row | Compound | zone of inhibition at 25 µg/disc (Bacillus subtilis [6]) [mm] | zone of inhibition at 50 µg/disc (Bacillus subtilis [7]) [mm] | zone of inhibition at 100 µg/disc (Bacillus subtilis [8]) [mm] | zone of inhibition at 12.5 µg/disc (Pseudomonas aeruginosa [9]) [mm] | zone of inhibition at 25 µg/disc (Pseudomonas aeruginosa [10]) [mm] | zone of inhibition at 50 µg/disc (Pseudomonas aeruginosa [11]) [mm] | zone of inhibition at 100 µg/disc (Pseudomonas aeruginosa [12]) [mm] | zone of inhibition at 12.5 µg/disc (Klebsiella pneumoniae [13]) [mm] | zone of inhibition at 25 µg/disc (Klebsiella pneumoniae [14]) [mm] | zone of inhibition at 50 µg/disc (Klebsiella pneumoniae [15]) [mm] | zone of inhibition at 100 µg/disc (Klebsiella pneumoniae [16]) [mm] | zone of inhibition at 12.5 µg/disc (Aspergillus niger [17]) [mm] | zone of inhibition at 25 µg/disc (Aspergillus niger [18]) [mm] | zone of inhibition at 50 µg/disc (Aspergillus niger [19]) [mm] | zone of inhibition at 100 µg/disc (Aspergillus niger [20]) [mm] | zone of inhibition at 12.5 µg/disc (Penicillium chrysogenum [21]) [mm] | zone of inhibition at 25 µg/disc (Penicillium chrysogenum [22]) [mm] | zone of inhibition at 50 µg/disc (Penicillium chrysogenum [23]) [mm] | zone of inhibition at 100 µg/disc (Penicillium chrysogenum [24]) [mm] | diameter of the inhibition zone (DIZ) (Staphylococcus aureus [1]) | other results
1 | Cc1cc(SCc2nnc(-c3ccccc3)s2)nc(SCc2nnc(-c3ccccc3)s2)n1 | 13 | 15 | 18 | 15 | 19 | 20 | 24 | 20 | 21 | 23 | 26 | 15 | 17 | 19 | 22 | 9 | 10 | 12 | 14 | – | zone of inhibition at 12.5 µg/disc (Staphylococcus aureus [1]; read-out: DIZ): 10 mm; zone of inhibition at 25 µg/disc (Staphylococcus aureus [2]): 11 mm; zone of inhibition at 50 µg/disc (Staphylococcus aureus [3]): 12 mm; zone of inhibition at 100 µg/disc (Staphylococcus aureus [4]): 13 mm; zone of inhibition at 12.5 µg/disc (Bacillus subtilis [5]): 11 mm
2 | Cc1cc(SCc2nnc(-c3ccc([N+](=O)[O-])cc3)o2)nc(SCc2nnc(-c3ccc([N+](=O)[O-])cc3)o2)n1 | 11 | 13 | 15 | 11 | 14 | 16 | 21 | 15 | 17 | 19 | 21 | 20 | 22 | 24 | 27 | 12 | 14 | 16 | 19 | inactive | zone of inhibition at 25 µg/disc (Staphylococcus aureus [2]): 7 mm; zone of inhibition at 50 µg/disc (Staphylococcus aureus [3]): 8 mm; zone of inhibition at 100 µg/disc (Staphylococcus aureus [4]): 10 mm; zone of inhibition at 12.5 µg/disc (Bacillus subtilis [5]): 9 mm
3 | Cc1ccc(-c2nnc(CSc3cc(C)nc(SCc4nnc(-c5ccc(C)cc5)n4N)n3)n2N)cc1 | 7 | 9 | 11 | 9 | 11 | 14 | 18 | 12 | 13 | 15 | 18 | 10 | 12 | 14 | 16 | – | – | 8 | 10 | inactive | diameter of the inhibition zone (DIZ) (Staphylococcus aureus [2]): inactive; diameter of the inhibition zone (DIZ) (Staphylococcus aureus [3]): inactive; diameter of the inhibition zone (DIZ) (Staphylococcus aureus [4]): inactive; diameter of the inhibition zone (DIZ) (Bacillus subtilis [5]): inactive; diameter of the inhibition zone (DIZ) (Penicillium chrysogenum [21]): inactive; diameter of the inhibition zone (DIZ) (Penicillium chrysogenum [22]): inactive
4 | Cc1cc(SCc2nnc(-c3ccc(Cl)cc3)o2)nc(SCc2nnc(-c3ccc(Cl)cc3)o2)n1 | – | 7 | 9 | 10 | 12 | 14 | 17 | 10 | 11 | 13 | 16 | 18 | 20 | 22 | 25 | 11 | 13 | 15 | 17 | inactive | diameter of the inhibition zone (DIZ) (Staphylococcus aureus [2]): inactive; diameter of the inhibition zone (DIZ) (Staphylococcus aureus [3]): inactive; diameter of the inhibition zone (DIZ) (Staphylococcus aureus [4]): inactive; diameter of the inhibition zone (DIZ) (Bacillus subtilis [5]): inactive; diameter of the inhibition zone (DIZ) (Bacillus subtilis [6]): inactive
